Measurements taken from patent US9724344B2, “Enhanced delivery of drug compositions to treat life threatening infections” (BOARD OF REGENTS, THE UNIVERSITY OF TEXAS SYSTEM, priority 2004, dated 2017).

How the values were obtained:
IL-12p70 = assay: ELISA of BAL supernatant for IL-12 elevation (inflammatory response); type: in vivo, mice; details: pulmonary administration, compared to excipients alone and saline
Experimental: FIG. 5 is a chart depicting lung concentration levels of IL-12p70 for an embodiment of the present invention. Mean IL-12p70 concentrations measured according to Example 32 via ELISA assay of the positive control, negative control and BAL supernatants of sacrificed mice. Surgery was performed on sacrificed mice to expose the pleural cavity and trachea at the throat. A small incision was cut into the trachea and a cannula consisting of a 23 gauge needle with a sheath of plastic tubing (0.037″ outside diameter (OD) and 0.025″ ID) was inserted through the incision to the base of the trachea and clamped to seal the opening. An aliquot (0.75 mL) of phosphate buffered saline was instilled through the cannula into the lungs and then removed to wash the bronchial and alveolar surfaces. This process was repeated for a total of three washes. The phosphate buffered saline containing cells was placed into centrifuge vials and centrifuged at 300 rpm (MiniSpin Plus. Eppendorf International, Hamburg, Del.). The supernatant was removed leaving the collected cells in the pellet. The supernatant from the BAL (Bronchoalveolar Lavage) was analyzed by enzyme-linked immunosorbent assay (ELISA) for IL-12 elevation (n=2 per sample tested).

airway macrophages = assay: Macrophage uptake of ITZ dosed via pulmonary administration; type: in vivo; details: samples taken on days 1, 3, 8 and 12
From the text: Cells (airway macrophages) were recovered from the lung and subjected to drug extraction and analyzed by mass spectroscopy for confirmation of ITZ presence in the macrophage.

[1] = cited from earlier work
[2] = Dissolution testing, United States Pharmacopeia 24 Type 2 apparatus (Examples 19-23); type: physicochemical; details: Avg
Experimental: For Examples 19-23, dissolution testing is performed on the samples using a United States Pharmacopeia 24 Type 2 apparatus (Distek Dissolution System […] with a TCS0200C heater/circulator; Crescent Scientific Pvt. Ltd.; Goregaon-East, Mumbai, India).

| IL-12 elevation in BAL supernatant (IL-12p70) | ITZ presence in airway macrophages (mass spectroscopy) (airway macrophages) | Percent Dissolved ([2]; 2 minutes) | Percent Dissolved ([2]; 5 minutes) | Percent Dissolved ([2]; 10 minutes) | Percent Dissolved ([2]; 15 minutes) | Percent Dissolved ([2]; 20 minutes) | Percent Dissolved ([2]; 25 minutes) | Percent Dissolved ([2]; 30 minutes) | Percent Dissolved ([2]; 60 minutes) | Percent Dissolved ([2]; 120 minutes) | SMILES | aqueous solubility [1] |
| --- | --- | --- | --- | --- | --- | --- | --- | --- | --- | --- | --- | --- |
| does not result in IL-12 elevation | all showed the presence of ITZ | – | – | – | – | – | – | – | – | – | CCC(C)n1ncn(-c2ccc(N3CCN(c4ccc(OCC5COC(Cn6cncn6)(c6ccc(Cl)cc6Cl)O5)cc4)CC3)cc2)c1=O (stereo not drawn) [ITZ, itraconazole] | < 1 µg/mL |
| – | – | 3.1% | 4.8% | 9.1% | 12.7% | 15.5% | 18.2% | 19.7% | 38.9% | 100.0% | CCC(C)n1ncn(-c2ccc(N3CCN(c4ccc(OCC5COC(Cn6cncn6)(c6ccc(Cl)cc6Cl)O5)cc4)CC3)cc2)c1=O (stereo not drawn) [Comparative Example 25] | – |
